Columns and labels:
IDH1 R132H = IDH1 R132H (Homo sapiens, UniProt O75874, R132H); assay: IDH1 R132H enzymatic assay (NADPH depletion coupled to diaphorase/resazurin); assay type: biochemical
IDH1 R132C = IDH1 R132C (Homo sapiens, UniProt O75874, R132C); assay: IDH1 R132C enzymatic assay (NADPH depletion coupled to diaphorase/resazurin); assay type: biochemical
Method in brief: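 NADPH depletion, read via diaphorase/resazurin coupling, after adding substrate at 0.6 mM α-KG and 0.012 mM NADPH. Beforehand, 0.00032 mg/mL enzyme sat with compound 30 min at room temperature in pH 6.5 potassium phosphate buffer with MgCl2, glycerol and BSA.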

[1] = enzymatic inhibition, IDH1 R132H
[2] = enzymatic inhibition, IDH1 R132C
[3] = IDH1 R132H enzymatic inhibition, IC50 class
[4] = IDH1 R132C enzymatic inhibition, IC50 class

Sequence of IDH1 R132H (O75874 whole entry R132H): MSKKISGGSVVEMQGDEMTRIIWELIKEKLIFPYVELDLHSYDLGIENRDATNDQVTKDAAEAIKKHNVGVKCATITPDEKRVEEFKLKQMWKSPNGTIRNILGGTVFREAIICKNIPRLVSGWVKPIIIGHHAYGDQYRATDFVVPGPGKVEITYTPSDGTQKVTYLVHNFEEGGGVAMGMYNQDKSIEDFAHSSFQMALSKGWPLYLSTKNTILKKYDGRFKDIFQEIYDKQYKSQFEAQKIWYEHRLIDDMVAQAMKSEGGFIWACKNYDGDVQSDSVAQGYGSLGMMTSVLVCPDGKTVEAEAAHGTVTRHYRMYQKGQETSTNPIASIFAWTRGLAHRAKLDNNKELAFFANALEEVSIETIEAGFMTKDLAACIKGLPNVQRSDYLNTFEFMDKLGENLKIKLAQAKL
Sequence of IDH1 R132C (O75874 whole entry R132C): as the sequence (O75874 whole entry R132H) above, with H132C counted along it

Compound	IC50 (IDH1 R132H; [1]) [nM]	IC50 (IDH1 R132C; [2]) [nM]	IC50 (IDH1 R132H; [3]) [nM]	IC50 (IDH1 R132C; [4]) [nM]
CCc1cccc(CC)c1-n1c(CC2CCC2)c(C(=O)N2CCNCC2)cc(-c2nc(-c3ccc(Cl)cc3)cs2)c1=O [Compound 433]	< 300	< 300	–	–
CCc1cccc(CC)c1-n1c(C2CCNCC2)c(C(=O)N2CCNCC2)cc(-c2nc(-c3ccc(Cl)cc3)cs2)c1=O [Compound 670]	–	–	5000 to 20000	> 20000
CCc1cccc(CC)c1-n1c(C)c(C(=O)NCCCNC)cc(-c2nc(-c3ccc(Cl)cc3)cs2)c1=O [Compound 304]	–	–	1000 to 5000	300 to 1000
CCc1cccc(CC)c1-n1c(C)c(C(=O)NC2CCCCC2O)cc(-c2nc(-c3ccc(Cl)cc3)cs2)c1=O (stereo not drawn) [Compound 270]	–	–	1000 to 5000	1000 to 5000
CCc1cccc(CC)c1-n1c(CC(C)C)c(C(=O)N2CCCCC2CO)cc(-c2nc(-c3ccc(Cl)cc3)cs2)c1=O (stereo not drawn) [Compound 312]	–	–	1000 to 5000	300 to 1000
CCc1cccc(CC)c1-n1c(C)c(C(=O)NC2CCCC2)cc(-c2nc(-c3ccc(Cl)cc3)cs2)c1=O [Compound 7]	–	–	> 20000	1000 to 5000
CCOc1ccc(Cl)cc1-n1c(C=C(C)C)c(C(=O)N2CCNCC2)cc(-c2nc(-c3ccc(C(F)F)cc3)cs2)c1=O [Compound 378]	–	–	< 300	< 300
CCc1cccc(CC)c1-n1c(C)c(C(=O)N(C)CCCNC)cc(-c2nc(-c3ccc(Cl)cc3)cs2)c1=O [Compound 133]	–	–	5000 to 20000	1000 to 5000
CC(C)=Cc1c(C(=O)N2CCNCC2)cc(-c2nc(-c3ccc(Cl)cc3)cs2)c(=O)n1-c1c(Cl)cccc1Cl [Compound 384]	–	–	< 300	< 300
CCc1cccc(CC)c1-n1c(CC(C)C)c(C(=O)N2CCNCC2)cc(-c2nc(-c3ccc(C(=O)N4CCOCC4)cc3)c(C)s2)c1=O [Compound 87]	–	–	5000 to 20000	5000 to 20000
CCc1cccc(CC)c1-n1c2c(cc(-c3nc(-c4ccccc4C)cs3)c1=O)C(=O)CC(C)(C)C2 [Compound 173]	–	–	1000 to 5000	1000 to 5000
CC(=O)Nc1ccccc1-n1c2c(cc(-c3nc(-c4ccc(Cl)cc4)cs3)c1=O)C(=O)CC(C)(C)C2 [Compound 105]	–	–	1000 to 5000	5000 to 20000
CCOc1ccc(-n2ccc(-c3cc(C(=O)N4CCNCC4)c(C=C(C)C)n(-c4c(CC)cccc4CC)c3=O)n2)cc1 [Compound 552]	< 300	< 300	–	–
CCc1cccc(CC)c1-n1c(CC(C)C)c(C(=O)N2CCNCC2)cc(-c2nc(-c3ccc(Cl)cc3)c(Cl)s2)c1=O [Compound 662]	–	–	300 to 1000	< 300
CCc1cccc(CC)c1-n1c(C=C(C)C)c(C(=O)N2CCNCC2CC(=O)O)cc(-c2nc(-c3ccc(Cl)cc3)cs2)c1=O (stereo not drawn) [Compound 599]	< 300	< 300	–	–
CCc1cccc(CC)c1-n1c(CC(C)C)c(C(=O)NC[C@@H](NC(C)=O)C(=O)O)cc(-c2nc(-c3ccc(Cl)cc3)cs2)c1=O [Compound 29]	–	–	1000 to 5000	1000 to 5000
CCc1cccc(CC)c1-n1c(CC(C)C)c(C(=O)N2CC(=O)N[C@@H](C(=O)O)C2)cc(-c2nc(-c3ccc(Cl)cc3)cs2)c1=O [Compound 297]	–	–	300 to 1000	300 to 1000
CCc1cccc(CC)c1-n1c(CC2CCNCC2)c(C(=O)NC)cc(-c2nc(-c3ccc(Cl)cc3)cs2)c1=O [Compound 365]	–	–	5000 to 20000	5000 to 20000
CCc1cccc(C)c1-n1c(C)c(C(=O)N2CCNCC2)cc(-c2nc(-c3ccc(Cl)cc3)cs2)c1=O [Compound 432]	300 to 1000	1000 to 5000	–	–
CCc1cccc(CC)c1-n1c(CC(C)C)c(C(=O)N2CCN[C@H](CO)C2)cc(-c2nc(-c3ccc(Cl)cc3)cs2)c1=O [Compound 283]	–	–	300 to 1000	< 300
CCc1cccc(CC)c1-n1c2c(cc(-c3nc(-c4ccc(Cl)cc4)cs3)c1=O)C(=O)CCC2 [Compound 525]	1000 to 5000	1000 to 5000	–	–
Cc1cccc(C)c1-n1c2c(cc(-c3nc(-c4ccc(Cl)cc4)cs3)c1=O)C(=O)CC(C)(C)C2 [Compound 215]	–	–	1000 to 5000	1000 to 5000
CCc1cccc(CC)c1-n1c(CC2CCNC2)c(C(=O)N2CCNCC2)cc(-c2nc(-c3ccc(Cl)cc3)cs2)c1=O (stereo not drawn) [Compound 627]	–	–	5000 to 20000	5000 to 20000
CCc1cccc(CC)c1-n1c(CC(C)C)c(C(=O)N2CCNCC2CO)cc(-c2nc(-c3ccc(Cl)cc3)cs2)c1=O (stereo not drawn) [Compound 272]	–	–	300 to 1000	< 300
CC1(C)CC(=O)c2cc(-c3nc(-c4ccc(Cl)cc4)cs3)c(=O)n(-c3ccccc3C(C)(C)C)c2C1 [Compound 241]	–	–	1000 to 5000	300 to 1000
CCc1cccc(CC)c1-n1c(CC(C)C)c(C(=O)NCCO)cc(-c2nc(-c3ccc(Cl)cc3)cs2)c1=O [Compound 4]	–	–	< 300	300 to 1000
Cc1ccc([N+](=O)[O-])cc1-n1c2c(cc(-c3nc(-c4ccc(Cl)cc4)cs3)c1=O)C(=O)CC(C)(C)C2 [Compound 182]	–	–	1000 to 5000	1000 to 5000

From US10703746B2, “Mutant IDH1 inhibitors useful for treating cancer” (THE UNITED STATES OF AMERICA, AS REPRESENTED BY THE …, priority 2014, dated 2020)
